# Source: patent US9828360B2 (Array BioPharma Inc., priority 2012, dated 2017)
# Columns and labels:
# Experiment in all cases: KinaseProfiler off-target kinase profiling
# Assay type in all cases: biochemical
# Details in all cases: 10 μM, ATP near Km
# MuSK = molecular target: T1, MuSK (Homo sapiens, UniProt O15146)
# T1 construct: purchased Millipore, Inc. (KinaseProfiler service)
# Experimental: (§1) A representative compound of the invention (Example 48) was tested for off-target kinase activity at a concentration of 10 μM by Millipore, Inc. in their KinaseProfiler™ service against all the kinases available in their full kinase panel. The compound was run in duplicate at a concentration of ATP near the Km for each individual kinase according to Millipore's specifications. The results are shown in Table B. Data are reported as percent of control (POC) and are the average of the two replicates.
# PKAC-alpha = molecular target: T2, PKAC-alpha (Homo sapiens, UniProt P17612)
# T2 construct: purchased Millipore, Inc. (KinaseProfiler service)
# Experimental: as §1
# MRCKbeta = molecular target: T3, MRCKbeta (Homo sapiens, UniProt Q9Y5S2)
# T3 construct: purchased Millipore, Inc. (KinaseProfiler service)
# Experimental: as §1
# FAK = molecular target: T4, FAK (Homo sapiens, UniProt Q05397)
# T4 construct: purchased Millipore, Inc. (KinaseProfiler service)
# Experimental: as §1
# NEK2 = molecular target: T5, NEK2 (Homo sapiens, UniProt P51955)
# T5 construct: purchased Millipore, Inc. (KinaseProfiler service)
# Experimental: as §1
# TNK2 = molecular target: T6, TNK2 (Homo sapiens, UniProt Q07912)
# T6 construct: purchased Millipore, Inc. (KinaseProfiler service)
# Experimental: as §1
# NEK7 = molecular target: T7, NEK7 (Homo sapiens, UniProt Q8TDX7)
# T7 construct: purchased Millipore, Inc. (KinaseProfiler service)
# Experimental: as §1
# MKK7beta = molecular target: T8, MKK7beta (Homo sapiens, UniProt O14733)
# T8 construct: purchased Millipore, Inc. (KinaseProfiler service)
# Experimental: as §1
# CLK3 = molecular target: T9, CLK3 (Homo sapiens, UniProt P49761)
# T9 construct: purchased Millipore, Inc. (KinaseProfiler service)
# Experimental: as §1
# JNK1alpha1 = molecular target: T10, JNK1alpha1 (Homo sapiens, UniProt P45983)
# T10 construct: purchased Millipore, Inc. (KinaseProfiler service)
# Experimental: as §1
# GRK6 = molecular target: T11, GRK6 (Homo sapiens, UniProt P43250)
# T11 construct: purchased Millipore, Inc. (KinaseProfiler service)
# Experimental: as §1
# Fgr = molecular target: T12, Fgr (Homo sapiens, UniProt P09769)
# T12 construct: purchased Millipore, Inc. (KinaseProfiler service)
# Experimental: as §1
# BrSK2 = molecular target: T13, BrSK2 (Homo sapiens, UniProt Q8IWQ3)
# T13 construct: purchased Millipore, Inc. (KinaseProfiler service)
# Experimental: as §1
# ZAP-70 = molecular target: T14, ZAP-70 (Homo sapiens, UniProt P43403)
# T14 construct: purchased Millipore, Inc. (KinaseProfiler service)
# Experimental: as §1
# EphB1 = molecular target: T15, EphB1 (Homo sapiens, UniProt P54762)
# T15 construct: purchased Millipore, Inc. (KinaseProfiler service)
# Experimental: as §1
# IGF-1R = molecular target: T16, IGF-1R (Homo sapiens, UniProt P08069)
# T16 construct: purchased Millipore, Inc. (KinaseProfiler service)
# Experimental: as §1
# CDK6/cyclinD3 = molecular target: T17, CDK6/cyclinD3 (Homo sapiens, UniProt Q00534)
# T17 construct: purchased Millipore, Inc. (KinaseProfiler service)
# Experimental: as §1
# Tie2 = molecular target: T18, Tie2 (Homo sapiens, UniProt Q02763)
# T18 construct: purchased Millipore, Inc. (KinaseProfiler service)
# Experimental: as §1
# RIPK2 = molecular target: T19, RIPK2 (Homo sapiens, UniProt O43353)
# T19 construct: purchased Millipore, Inc. (KinaseProfiler service)
# Experimental: as §1
# CAMK2b = molecular target: T20, CAMK2b (Homo sapiens, UniProt Q13554)
# T20 construct: purchased Millipore, Inc. (KinaseProfiler service)
# Experimental: as §1
# CAMK4 = molecular target: T21, CAMK4 (Homo sapiens, UniProt Q16566)
# T21 construct: purchased Millipore, Inc. (KinaseProfiler service)
# Experimental: as §1
# GRK5 = molecular target: T22, GRK5 (Homo sapiens, UniProt P34947)
# T22 construct: purchased Millipore, Inc. (KinaseProfiler service)
# Experimental: as §1
# Haspin = molecular target: T23, Haspin (Homo sapiens, UniProt Q8TF76)
# T23 construct: purchased Millipore, Inc. (KinaseProfiler service)
# Experimental: as §1
# WNK2 = molecular target: T24, WNK2 (Homo sapiens, UniProt Q9Y3S1)
# T24 construct: purchased Millipore, Inc. (KinaseProfiler service)
# Experimental: as §1
# AKT2 = molecular target: T25, AKT2 (Homo sapiens, UniProt P31751)
# T25 construct: purchased Millipore, Inc. (KinaseProfiler service)
# Experimental: as §1
# MLK1 = molecular target: T26, MLK1 (Homo sapiens, UniProt P80192)
# T26 construct: purchased Millipore, Inc. (KinaseProfiler service)
# Experimental: as §1
# EphA3 = molecular target: T27, EphA3 (Homo sapiens, UniProt P29320)
# T27 construct: purchased Millipore, Inc. (KinaseProfiler service)
# Experimental: as §1
# AKT1 = molecular target: T28, AKT1 (Homo sapiens, UniProt P31749)
# T28 construct: purchased Millipore, Inc. (KinaseProfiler service)
# Experimental: as §1
# Bmx = molecular target: T29, Bmx (Homo sapiens, UniProt P51813)
# T29 construct: purchased Millipore, Inc. (KinaseProfiler service)
# Experimental: as §1
# SRC = molecular target: T30, SRC (Homo sapiens, UniProt P12931)
# T30 construct: purchased Millipore, Inc. (KinaseProfiler service)
# Experimental: as §1
# IKKalpha = molecular target: T31, IKKalpha (Homo sapiens, UniProt O15111)
# T31 construct: purchased Millipore, Inc. (KinaseProfiler service)
# Experimental: as §1
# TSSK2 = molecular target: T32, TSSK2 (Homo sapiens, UniProt Q96PF2)
# T32 construct: purchased Millipore, Inc. (KinaseProfiler service)
# Experimental: as §1
# eEF-2K = molecular target: T33, eEF-2K (Homo sapiens, UniProt O00418)
# T33 construct: purchased Millipore, Inc. (KinaseProfiler service)
# Experimental: as §1
# ALK4 = molecular target: T34, ALK4 (Homo sapiens, UniProt P36896)
# T34 construct: purchased Millipore, Inc. (KinaseProfiler service)
# Experimental: as §1
# ALK = molecular target: T35, ALK (Homo sapiens, UniProt Q9UM73)
# T35 construct: purchased Millipore, Inc. (KinaseProfiler service)
# Experimental: as §1
# CAMK1 = molecular target: T36, CAMK1 (Homo sapiens, UniProt Q14012)
# T36 construct: purchased Millipore, Inc. (KinaseProfiler service)
# Experimental: as §1
# DRAK1 = molecular target: T37, DRAK1 (Homo sapiens, UniProt Q9UEE5)
# T37 construct: purchased Millipore, Inc. (KinaseProfiler service)
# Experimental: as §1
# Pim-2 = molecular target: T38, Pim-2 (Homo sapiens, UniProt Q9P1W9)
# T38 construct: purchased Millipore, Inc. (KinaseProfiler service)
# Experimental: as §1
# CHK1 = molecular target: T39, CHK1 (Homo sapiens, UniProt O14757)
# T39 construct: purchased Millipore, Inc. (KinaseProfiler service)
# Experimental: as §1
# PRK2 = molecular target: T40, PRK2 (Homo sapiens, UniProt Q16513)
# T40 construct: purchased Millipore, Inc. (KinaseProfiler service)
# Experimental: as §1
# PKCbetaI = molecular target: T41, PKCbetaI (Homo sapiens, UniProt P05771)
# T41 construct: purchased Millipore, Inc. (KinaseProfiler service)
# Experimental: as §1
# T11 sequence (P43250 whole entry): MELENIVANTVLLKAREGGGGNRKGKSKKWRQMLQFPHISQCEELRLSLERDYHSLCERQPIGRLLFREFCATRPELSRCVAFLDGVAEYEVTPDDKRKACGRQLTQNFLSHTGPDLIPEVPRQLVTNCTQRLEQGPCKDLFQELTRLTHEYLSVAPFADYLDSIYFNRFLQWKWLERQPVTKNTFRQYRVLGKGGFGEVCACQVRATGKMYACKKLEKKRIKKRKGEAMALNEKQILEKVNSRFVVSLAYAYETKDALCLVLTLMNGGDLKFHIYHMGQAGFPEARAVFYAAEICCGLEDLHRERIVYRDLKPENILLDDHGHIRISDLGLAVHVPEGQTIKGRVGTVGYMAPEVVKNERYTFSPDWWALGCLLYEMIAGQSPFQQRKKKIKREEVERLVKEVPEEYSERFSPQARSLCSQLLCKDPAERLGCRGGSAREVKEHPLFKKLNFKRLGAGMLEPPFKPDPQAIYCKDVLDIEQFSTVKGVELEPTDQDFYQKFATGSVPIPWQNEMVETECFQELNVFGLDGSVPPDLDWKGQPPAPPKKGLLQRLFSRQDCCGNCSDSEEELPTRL
# T22 sequence (P34947 whole entry): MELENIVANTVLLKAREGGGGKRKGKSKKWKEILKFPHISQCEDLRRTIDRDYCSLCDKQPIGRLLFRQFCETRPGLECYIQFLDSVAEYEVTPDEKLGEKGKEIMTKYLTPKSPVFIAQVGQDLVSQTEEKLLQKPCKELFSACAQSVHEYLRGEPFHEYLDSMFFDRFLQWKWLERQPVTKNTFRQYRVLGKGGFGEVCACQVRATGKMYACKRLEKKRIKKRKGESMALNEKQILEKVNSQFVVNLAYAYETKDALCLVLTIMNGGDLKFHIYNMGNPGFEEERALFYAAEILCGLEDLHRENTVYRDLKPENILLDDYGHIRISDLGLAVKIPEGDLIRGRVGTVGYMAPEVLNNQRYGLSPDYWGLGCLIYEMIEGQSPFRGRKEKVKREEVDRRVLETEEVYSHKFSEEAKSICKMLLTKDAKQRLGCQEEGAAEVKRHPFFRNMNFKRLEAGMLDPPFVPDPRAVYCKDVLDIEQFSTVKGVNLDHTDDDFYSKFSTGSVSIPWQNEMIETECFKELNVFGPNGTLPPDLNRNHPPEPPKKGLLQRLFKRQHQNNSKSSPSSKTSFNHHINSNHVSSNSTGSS
# T10 sequence (P45983 1-384 isoform P45983-2): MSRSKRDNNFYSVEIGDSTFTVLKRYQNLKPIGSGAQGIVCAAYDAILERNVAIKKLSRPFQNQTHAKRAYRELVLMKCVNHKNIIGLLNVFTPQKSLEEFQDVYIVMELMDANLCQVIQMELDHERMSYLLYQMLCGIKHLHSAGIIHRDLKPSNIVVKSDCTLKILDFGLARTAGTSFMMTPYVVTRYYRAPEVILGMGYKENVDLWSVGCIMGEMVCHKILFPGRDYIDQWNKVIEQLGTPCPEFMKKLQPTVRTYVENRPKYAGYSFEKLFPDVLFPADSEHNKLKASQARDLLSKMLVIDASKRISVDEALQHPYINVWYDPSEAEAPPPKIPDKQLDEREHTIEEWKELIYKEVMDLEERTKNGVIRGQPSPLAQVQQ
# T36 sequence (Q14012 whole entry): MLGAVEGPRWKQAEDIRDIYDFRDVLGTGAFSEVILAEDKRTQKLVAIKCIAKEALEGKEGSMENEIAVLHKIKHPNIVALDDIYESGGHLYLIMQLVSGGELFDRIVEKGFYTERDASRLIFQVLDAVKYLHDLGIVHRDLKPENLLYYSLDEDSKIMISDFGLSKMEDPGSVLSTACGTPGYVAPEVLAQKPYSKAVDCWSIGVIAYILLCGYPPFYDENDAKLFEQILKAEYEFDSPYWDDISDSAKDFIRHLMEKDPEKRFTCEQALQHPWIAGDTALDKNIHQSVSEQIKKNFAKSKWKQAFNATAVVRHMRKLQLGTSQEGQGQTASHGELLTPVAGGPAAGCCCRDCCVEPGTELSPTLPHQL
# T1 sequence (O15146 24-869): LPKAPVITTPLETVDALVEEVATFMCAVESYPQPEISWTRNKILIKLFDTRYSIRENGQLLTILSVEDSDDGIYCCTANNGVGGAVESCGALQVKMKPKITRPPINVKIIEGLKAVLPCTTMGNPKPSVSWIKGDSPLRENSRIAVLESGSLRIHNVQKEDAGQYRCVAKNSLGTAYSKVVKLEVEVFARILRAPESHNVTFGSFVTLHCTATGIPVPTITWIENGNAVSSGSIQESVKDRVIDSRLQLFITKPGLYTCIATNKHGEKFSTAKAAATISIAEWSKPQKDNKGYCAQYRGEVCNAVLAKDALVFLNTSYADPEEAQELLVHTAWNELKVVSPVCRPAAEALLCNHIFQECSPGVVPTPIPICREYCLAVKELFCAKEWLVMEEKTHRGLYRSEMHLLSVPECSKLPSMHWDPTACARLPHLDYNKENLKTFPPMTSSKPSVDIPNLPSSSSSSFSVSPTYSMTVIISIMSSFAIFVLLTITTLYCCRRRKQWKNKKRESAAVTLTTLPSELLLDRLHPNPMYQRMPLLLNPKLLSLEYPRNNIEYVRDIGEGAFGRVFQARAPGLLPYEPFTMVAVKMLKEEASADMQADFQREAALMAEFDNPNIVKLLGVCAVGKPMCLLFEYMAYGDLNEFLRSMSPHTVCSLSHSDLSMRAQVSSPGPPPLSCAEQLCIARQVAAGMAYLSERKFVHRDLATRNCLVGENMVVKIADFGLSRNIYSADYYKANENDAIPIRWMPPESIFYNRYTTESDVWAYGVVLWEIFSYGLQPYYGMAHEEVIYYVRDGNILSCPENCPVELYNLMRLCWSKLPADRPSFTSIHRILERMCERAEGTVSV
# T14 sequence (P43403 whole entry): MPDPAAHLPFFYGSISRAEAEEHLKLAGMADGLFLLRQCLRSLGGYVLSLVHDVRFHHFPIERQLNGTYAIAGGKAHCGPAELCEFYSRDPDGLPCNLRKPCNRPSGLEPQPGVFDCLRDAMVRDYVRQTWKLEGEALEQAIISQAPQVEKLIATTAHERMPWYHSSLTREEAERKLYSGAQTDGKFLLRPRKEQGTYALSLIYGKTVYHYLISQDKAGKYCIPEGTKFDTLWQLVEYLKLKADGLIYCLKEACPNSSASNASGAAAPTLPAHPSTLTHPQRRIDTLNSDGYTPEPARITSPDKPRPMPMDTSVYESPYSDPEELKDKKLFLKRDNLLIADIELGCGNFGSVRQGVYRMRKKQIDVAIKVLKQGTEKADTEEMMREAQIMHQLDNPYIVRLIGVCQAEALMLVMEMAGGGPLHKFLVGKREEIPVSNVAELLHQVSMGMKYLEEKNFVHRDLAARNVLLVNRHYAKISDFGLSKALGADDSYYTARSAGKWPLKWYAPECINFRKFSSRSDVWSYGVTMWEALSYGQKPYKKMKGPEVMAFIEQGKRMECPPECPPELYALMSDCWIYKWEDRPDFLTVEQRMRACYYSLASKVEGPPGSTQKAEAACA
# T31 sequence (O15111 whole entry): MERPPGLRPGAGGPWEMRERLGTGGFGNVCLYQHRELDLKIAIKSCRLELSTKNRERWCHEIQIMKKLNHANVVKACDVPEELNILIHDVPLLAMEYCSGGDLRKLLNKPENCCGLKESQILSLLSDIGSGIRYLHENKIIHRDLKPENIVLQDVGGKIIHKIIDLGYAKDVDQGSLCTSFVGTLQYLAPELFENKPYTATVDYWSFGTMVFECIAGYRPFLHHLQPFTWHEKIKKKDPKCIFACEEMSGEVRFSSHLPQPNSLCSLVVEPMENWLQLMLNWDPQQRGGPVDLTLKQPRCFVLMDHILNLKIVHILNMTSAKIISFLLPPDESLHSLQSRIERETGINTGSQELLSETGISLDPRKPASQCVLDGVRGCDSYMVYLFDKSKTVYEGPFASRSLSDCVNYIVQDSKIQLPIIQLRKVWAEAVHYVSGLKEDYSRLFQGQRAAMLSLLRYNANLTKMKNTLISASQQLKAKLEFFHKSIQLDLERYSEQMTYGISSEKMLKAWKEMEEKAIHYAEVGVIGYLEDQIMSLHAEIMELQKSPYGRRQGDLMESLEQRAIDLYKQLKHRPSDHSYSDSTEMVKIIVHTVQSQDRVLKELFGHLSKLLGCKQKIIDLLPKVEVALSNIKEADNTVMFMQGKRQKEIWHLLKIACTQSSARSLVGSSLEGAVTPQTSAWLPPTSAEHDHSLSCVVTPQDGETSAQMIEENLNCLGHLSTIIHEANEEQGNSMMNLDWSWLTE
# T34 sequence (P36896 24-505): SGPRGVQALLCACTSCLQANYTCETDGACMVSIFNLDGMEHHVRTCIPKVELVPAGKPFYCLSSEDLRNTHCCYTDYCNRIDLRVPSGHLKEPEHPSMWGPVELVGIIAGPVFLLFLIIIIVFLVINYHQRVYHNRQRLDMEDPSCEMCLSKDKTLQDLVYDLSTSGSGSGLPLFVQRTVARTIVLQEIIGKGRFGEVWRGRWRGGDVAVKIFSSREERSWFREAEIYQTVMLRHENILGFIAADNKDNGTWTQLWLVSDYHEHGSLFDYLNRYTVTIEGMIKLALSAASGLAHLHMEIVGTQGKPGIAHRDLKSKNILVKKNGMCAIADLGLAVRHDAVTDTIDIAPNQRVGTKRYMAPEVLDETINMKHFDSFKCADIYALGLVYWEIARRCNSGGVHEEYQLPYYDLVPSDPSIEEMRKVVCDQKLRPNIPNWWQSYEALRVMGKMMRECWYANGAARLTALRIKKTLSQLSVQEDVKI
# T32 sequence (Q96PF2 whole entry): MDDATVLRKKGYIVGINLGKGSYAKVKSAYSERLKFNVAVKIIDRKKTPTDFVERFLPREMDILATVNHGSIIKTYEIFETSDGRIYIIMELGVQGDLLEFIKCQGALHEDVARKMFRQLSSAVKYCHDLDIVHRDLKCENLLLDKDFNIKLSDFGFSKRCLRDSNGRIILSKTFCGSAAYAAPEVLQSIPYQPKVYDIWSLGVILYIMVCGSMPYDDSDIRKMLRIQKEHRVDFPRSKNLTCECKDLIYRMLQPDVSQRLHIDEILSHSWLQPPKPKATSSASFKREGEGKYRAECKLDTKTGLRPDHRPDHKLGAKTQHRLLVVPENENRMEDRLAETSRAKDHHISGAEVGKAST
structure (smiles),measurement,setting,value
"COCCN1C[C@@H](NC(=O)Nc2sc(C(C)C)nc2-c2ccccc2)[C@H](c2ccccc2)C1 [Example 48, 1-(2-isopropyl-4-phenylthiazol-5-yl)-3-((3S,4R)-1-(2-methoxyethyl)-4-phenylpyrrolidin-3-yl)urea]",Avg POC,MuSK,107.5% of control
same,Avg POC,PKAC-alpha,98.5% of control
same,Avg POC,MRCKbeta,140.5% of control
same,Avg POC,FAK,107.5% of control
same,Avg POC,NEK2,112% of control
same,Avg POC,TNK2,99.5% of control
same,Avg POC,NEK7,107% of control
same,Avg POC,MKK7beta,98% of control
same,Avg POC,CLK3,101.5% of control
same,Avg POC,JNK1alpha1,106.5% of control
same,Avg POC,GRK6,101% of control
same,Avg POC,Fgr,111.5% of control
same,Avg POC,BrSK2,119.5% of control
same,Avg POC,ZAP-70,100.5% of control
same,Avg POC,EphB1,107.5% of control
same,Avg POC,IGF-1R,85.5% of control
same,Avg POC,CDK6/cyclinD3,112.5% of control
same,Avg POC,Tie2,96% of control
same,Avg POC,RIPK2,108% of control
same,Avg POC,CAMK2b,90% of control
same,Avg POC,CAMK4,101.5% of control
same,Avg POC,GRK5,106.5% of control
same,Avg POC,Haspin,117% of control
same,Avg POC,WNK2,92.5% of control
same,Avg POC,AKT2,148% of control
same,Avg POC,MLK1,115% of control
same,Avg POC,EphA3,112% of control
same,Avg POC,AKT1,117% of control
same,Avg POC,Bmx,122% of control
same,Avg POC,SRC,124% of control
same,Avg POC,IKKalpha,112% of control
same,Avg POC,TSSK2,124% of control
same,Avg POC,eEF-2K,116.5% of control
same,Avg POC,ALK4,88.5% of control
same,Avg POC,ALK,125% of control
same,Avg POC,CAMK1,104.5% of control
same,Avg POC,DRAK1,104% of control
same,Avg POC,Pim-2,104% of control
same,Avg POC,CHK1,110% of control
same,Avg POC,PRK2,111% of control
same,Avg POC,PKCbetaI,97% of control
